Laboratory results published in BindingDB's records for patent US20250215013 (Impact Therapeutics (Shanghai), 2025).

Columns and labels:
PARP2 = PARP2 (Homo sapiens, UniProt Q9UGN5); experiment: PARP1 and PARP2 Chemiluminescent Assay
Experimental: (§1) The solutions were added to a 96-well plate coated with histone mixture, incubated at room temperature for 1 h, then 50 μL 0.3 ng/mL Streptavidin-HRP was added to each well. The plates were incubated for 30 minutes at room temperature. Finally, the plates were treated with streptavidin-HRP followed by addition of the ELISA ECL substrate to produce chemiluminescence that can be measured using a chemiluminescence reader. Inhibition of the tested compound to PARP1/2 enzyme activity was calculated according to the following formula.Inhibition ⁢ ( % ) = Readings ⁢ of ⁢ positive ⁢ control - X Readings ⁢ of ⁢ positive ⁢ control - Readings ⁢ of ⁢ negative ⁢ controlIC50 value is obtained by fitting the s-shaped dose response curve equation by using XL Fit software. The curve equation is Y=100/(1+10^(logC−logIC50)), C is the compound concentration.

[1] = target: Poly [ADP-ribose] polymerase 1 (Homo sapiens, UniProt P09874); experiment: PARP1 and PARP2 Chemiluminescent Assay
Chain of Poly [ADP-ribose] polymerase 1 (P09874 whole entry): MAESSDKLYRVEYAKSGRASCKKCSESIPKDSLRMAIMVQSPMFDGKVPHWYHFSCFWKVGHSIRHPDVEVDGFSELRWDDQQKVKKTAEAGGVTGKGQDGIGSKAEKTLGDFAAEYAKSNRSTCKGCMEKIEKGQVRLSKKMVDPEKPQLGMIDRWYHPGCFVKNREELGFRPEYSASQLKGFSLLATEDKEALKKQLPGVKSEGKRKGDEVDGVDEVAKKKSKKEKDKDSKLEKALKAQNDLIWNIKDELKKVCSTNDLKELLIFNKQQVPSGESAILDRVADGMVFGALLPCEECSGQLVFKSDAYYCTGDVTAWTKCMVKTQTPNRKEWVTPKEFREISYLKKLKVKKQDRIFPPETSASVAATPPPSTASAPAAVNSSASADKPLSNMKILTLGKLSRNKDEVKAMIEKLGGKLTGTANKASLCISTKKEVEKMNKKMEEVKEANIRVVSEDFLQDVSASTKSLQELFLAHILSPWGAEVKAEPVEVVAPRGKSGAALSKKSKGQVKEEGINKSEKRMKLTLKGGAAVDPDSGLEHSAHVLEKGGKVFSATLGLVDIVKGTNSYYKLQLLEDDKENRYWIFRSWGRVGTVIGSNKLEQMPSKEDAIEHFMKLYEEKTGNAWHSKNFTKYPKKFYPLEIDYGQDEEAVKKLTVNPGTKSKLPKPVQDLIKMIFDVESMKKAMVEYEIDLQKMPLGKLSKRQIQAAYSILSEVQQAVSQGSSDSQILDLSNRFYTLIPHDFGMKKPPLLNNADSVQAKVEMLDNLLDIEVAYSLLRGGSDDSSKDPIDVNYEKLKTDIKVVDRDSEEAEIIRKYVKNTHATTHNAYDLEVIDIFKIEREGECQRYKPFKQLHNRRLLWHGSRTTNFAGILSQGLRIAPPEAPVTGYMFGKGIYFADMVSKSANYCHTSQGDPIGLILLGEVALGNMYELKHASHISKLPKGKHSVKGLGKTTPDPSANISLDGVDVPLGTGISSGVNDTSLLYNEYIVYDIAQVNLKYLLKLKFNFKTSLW
Experimental: as §1

Chain of PARP2 (Q9UGN5 whole entry): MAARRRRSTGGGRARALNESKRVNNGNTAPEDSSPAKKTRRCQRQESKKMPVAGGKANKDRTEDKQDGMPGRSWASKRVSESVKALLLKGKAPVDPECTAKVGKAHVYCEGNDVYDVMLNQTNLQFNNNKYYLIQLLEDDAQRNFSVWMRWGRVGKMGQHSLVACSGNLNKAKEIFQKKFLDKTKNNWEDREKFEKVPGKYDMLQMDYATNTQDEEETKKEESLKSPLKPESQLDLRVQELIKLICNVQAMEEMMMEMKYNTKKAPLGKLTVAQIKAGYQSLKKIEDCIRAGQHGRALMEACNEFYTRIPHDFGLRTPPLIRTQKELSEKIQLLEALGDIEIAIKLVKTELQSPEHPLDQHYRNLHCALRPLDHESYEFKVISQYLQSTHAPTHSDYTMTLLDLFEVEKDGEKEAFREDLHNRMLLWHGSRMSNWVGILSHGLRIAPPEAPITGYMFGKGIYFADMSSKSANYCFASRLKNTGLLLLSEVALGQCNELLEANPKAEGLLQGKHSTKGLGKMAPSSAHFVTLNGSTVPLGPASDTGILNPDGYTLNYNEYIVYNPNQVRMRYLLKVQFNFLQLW

## CNC(=O)c1ccc(N2CCN(Cc3ccc4c([nH]c(=O)n5ccnc45)c3F)CC2)c(C)n1 [US20250215013, Example 50]
PARP2
  IC50: > 10000 nM
[1]
  IC50: 2.13 nM

## CNC(=O)c1ccc(N2CCN(Cc3ccc4c([nH]c(=O)c5c(F)cnn54)c3F)CC2)c(F)n1 [US20250215013, Example 188]
PARP2
  IC50: 1540 nM
[1]
  IC50: 0.4 nM
